According to US11053204B2, “Pyrimidinyloxy benzene derivatives as herbicides” (FMC Corporation, priority 2015, dated 2021):

Key:
Type in all cases: in vivo
[1] = system: chickweed (common chickweed, Stellaria media); experiment: Test C postemergence, plant response rating; conditions: for Chickweed plant response rating: scale 0 to 100 (0 no effect, 100 complete control)
How it was run: (§1)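 Both timings shared one formulation, a non-phytotoxic solvent mixture with surfactant, and a greenhouse period of 13 to 15 d. Preemergence used seeded loam/sand or silt loam soil, postemergence used 2 to 18 cm plants; visual ratings ran from 0 (no effect) to 100 (complete control).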

[2] = system: nutsedge, yellow (yellow nutsedge, Cyperus esculentus); experiment: Test C postemergence, plant response rating; conditions: for Nutsedge, Yellow plant response rating: scale 0 to 100 (0 no effect, 100 complete control)
How it was run: as §1

[3] = system: ryegrass, Italian (Italian ryegrass, Lolium multiflorum); experiment: Test C postemergence, plant response rating; conditions: for Ryegrass, Italian plant response rating: scale 0 to 100 (0 no effect, 100 complete control)
How it was run: as §1

corn (Zea mays) = experiment: Test C postemergence, plant response rating; conditions: for Corn plant response rating: scale 0 to 100 (0 no effect, 100 complete control)
How it was run: as §1

[4] = system: ragweed (common ragweed, Ambrosia elatior); experiment: Test C postemergence, plant response rating; conditions: for Ragweed plant response rating: scale 0 to 100 (0 no effect, 100 complete control)
How it was run: as §1

kochia (Kochia scoparia) [5] = experiment: Test C postemergence, plant response rating; conditions: for Kochia plant response rating: scale 0 to 100 (0 no effect, 100 complete control)
How it was run: as §1

[6] = system: waterhemp (common waterhemp, Amaranthus rudis); experiment: Test C postemergence, plant response rating; conditions: for Waterhemp plant response rating: 125 g ai/ha, scale 0 to 100 (0 no effect, 100 complete control)
How it was run: as §1

[7] = system: lambsquarters (Chenopodium album); experiment: Test C postemergence, plant response rating; conditions: for Lambsquarters plant response rating: scale 0 to 100 (0 no effect, 100 complete control)
How it was run: as §1

[8] = system: galium (catchweed bedstraw, Galium aparine); experiment: Test C postemergence, plant response rating; conditions: for Galium plant response rating: scale 0 to 100 (0 no effect, 100 complete control)
How it was run: as §1

soybean (Glycine max) = experiment: Test C postemergence, plant response rating; conditions: for Soybean plant response rating: scale 0 to 100 (0 no effect, 100 complete control)
How it was run: as §1

[9] = system: oat, wild (wild oat Avena fatua); experiment: Test C postemergence, plant response rating; conditions: for Oat, Wild plant response rating: scale 0 to 100 (0 no effect, 100 complete control)
How it was run: as §1

[10] = system: crabgrass, large (large crabgrass, Digitaria sanguinalis); experiment: Test C postemergence, plant response rating; conditions: for Crabgrass, Large plant response rating: scale 0 to 100 (0 no effect, 100 complete control)
How it was run: as §1

[11] = system: pigweed (Amaranthus retroflexus); experiment: Test A preemergence, visual injury rating
How it was run: (§2)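 Visual 0–100 rating (100 = complete control) taken about 10 d post-treatment relative to untreated checks. Preemergence: directed soil spray on sown loam/sand pots. Postemergence: seedlings 2–10 cm, 1–2 leaf. Non-phytotoxic solvent formulation with surfactant.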

[12] = system: giant foxtail (Setaria faberii); experiment: Test A preemergence, visual injury rating
How it was run: as §2

[13] = system: ragweed (common ragweed, Ambrosia elatior); experiment: Test A preemergence, visual injury rating
How it was run: as §2

kochia (Kochia scoparia) [14] = experiment: Test A preemergence, visual injury rating
How it was run: as §2

[15] = system: barnyardgrass (Echinochloa crus-galli); experiment: Test A preemergence, visual injury rating
How it was run: as §2

[16] = system: Italian ryegrass (Lolium multiflorum); experiment: Test A preemergence, visual injury rating
How it was run: as §2

[17] = 31 g ai/ha, 0 to 100 scale, 0 no effect, 100 complete control
[18] = 125 g ai/ha, 0 to 100 scale (0 no effect, 100 complete control)

FC(F)(F)CCCCc1c(Br)cccc1Oc1ncc(Cl)cn1 [Compound 138]
Plant response rating, Chickweed ([1]; 16 g ai/ha, scale of 0 to 100): 75
Plant response rating, Chickweed ([1]; 31 g ai/ha, scale 0 to 100): 85
Chickweed plant response rating ([1]; 62 g ai/ha): 100
Chickweed plant response rating ([1]; 125 g ai/ha): 100
Plant response rating, Nutsedge, Yellow ([2]; 16 g ai/ha, scale of 0 to 100): 0
Plant response rating, Nutsedge, Yellow ([2]; 31 g ai/ha, scale 0 to 100): 0
Nutsedge, Yellow plant response rating ([2]; 62 g ai/ha): 10
Nutsedge, Yellow plant response rating ([2]; 125 g ai/ha): 30
Plant response rating, Ryegrass, Italian ([3]; 16 g ai/ha, scale of 0 to 100): 5
Plant response rating, Ryegrass, Italian ([3]; 31 g ai/ha, scale 0 to 100): 5
Ryegrass, Italian plant response rating ([3]; 62 g ai/ha): 30
Ryegrass, Italian plant response rating ([3]; 125 g ai/ha): 35
Plant response rating, Corn (corn (Zea mays); 16 g ai/ha, scale of 0 to 100): 15
Plant response rating, Corn (corn (Zea mays); 31 g ai/ha, scale 0 to 100): 20
Corn plant response rating (corn (Zea mays); 62 g ai/ha): 25
Corn plant response rating (corn (Zea mays); 125 g ai/ha): 30
Plant response rating, Ragweed ([4]; 16 g ai/ha, scale of 0 to 100): 0
Plant response rating, Ragweed ([4]; 31 g ai/ha, scale 0 to 100): 30
Ragweed plant response rating ([4]; 62 g ai/ha): 35
Ragweed plant response rating ([4]; 125 g ai/ha): 75
Plant response rating, Kochia (kochia (Kochia scoparia) [5]; 16 g ai/ha, scale of 0 to 100): 75
Plant response rating, Kochia (kochia (Kochia scoparia) [5]; 31 g ai/ha, scale 0 to 100): 85
Kochia plant response rating (kochia (Kochia scoparia) [5]; 62 g ai/ha): 95
Kochia plant response rating (kochia (Kochia scoparia) [5]; 125 g ai/ha): 98
Plant response rating, Waterhemp ([6]; 16 g ai/ha, scale of 0 to 100): 98
Plant response rating, Waterhemp ([6]; 31 g ai/ha, scale 0 to 100): 98
Waterhemp plant response rating [6]: 100
Plant response rating, Lambsquarters ([7]; 16 g ai/ha, scale of 0 to 100): 65
Plant response rating, Lambsquarters ([7]; 31 g ai/ha, scale 0 to 100): 90
Lambsquarters plant response rating ([7]; 62 g ai/ha): 95
Lambsquarters plant response rating ([7]; 125 g ai/ha): 100
Plant response rating, Galium ([8]; 16 g ai/ha, scale of 0 to 100): 65
Plant response rating, Galium ([8]; 31 g ai/ha, scale 0 to 100): 80
Galium plant response rating ([8]; 62 g ai/ha): 80
Galium plant response rating ([8]; 125 g ai/ha): 85
Plant response rating, Soybean (soybean (Glycine max); 16 g ai/ha, scale of 0 to 100): 35
Plant response rating, Soybean (soybean (Glycine max); 31 g ai/ha, scale 0 to 100): 55
Soybean plant response rating (soybean (Glycine max); 62 g ai/ha): 60
Soybean plant response rating (soybean (Glycine max); 125 g ai/ha): 55
Plant response rating, Oat, Wild ([9]; 16 g ai/ha, scale of 0 to 100): 10
Plant response rating, Oat, Wild ([9]; 31 g ai/ha, scale 0 to 100): 55
Oat, Wild plant response rating ([9]; 62 g ai/ha): 50
Oat, Wild plant response rating ([9]; 125 g ai/ha): 70
Plant response rating, Crabgrass, Large ([10]; 16 g ai/ha, scale of 0 to 100): 35
Plant response rating, Crabgrass, Large ([10]; 31 g ai/ha, scale 0 to 100): 65
Crabgrass, Large plant response rating ([10]; 62 g ai/ha): 85
Crabgrass, Large plant response rating ([10]; 125 g ai/ha): 95
Plant response rating, Pigweed [11, 17]: 80
Plant response rating, Pigweed [11, 18]: 100
Plant response rating, Foxtail, Giant [12, 17]: 90
Plant response rating, Foxtail, Giant [12, 18]: 100
Plant response rating, Ragweed [13, 17]: 0
Plant response rating, Ragweed [13, 18]: 0
Plant response rating, Kochia (kochia (Kochia scoparia) [14]; [17]): 50
Plant response rating, Kochia (kochia (Kochia scoparia) [14]; [18]): 100
Plant response rating, Barnyardgrass [15, 17]: 70
Plant response rating, Barnyardgrass [15, 18]: 100
Plant response rating, Ryegrass, Italian [16, 17]: 10
Plant response rating, Ryegrass, Italian [16, 18]: 100

N#CC(CCCC(F)(F)F)c1ccccc1Oc1ncc(Cl)cn1 (centres unmarked) [Compound 144]
Plant response rating, Chickweed ([1]; 16 g ai/ha, scale of 0 to 100): 50
Plant response rating, Chickweed ([1]; 31 g ai/ha, scale 0 to 100): 55
Chickweed plant response rating ([1]; 62 g ai/ha): 85
Chickweed plant response rating ([1]; 125 g ai/ha): 85
Plant response rating, Nutsedge, Yellow ([2]; 16 g ai/ha, scale of 0 to 100): 0
Plant response rating, Nutsedge, Yellow ([2]; 31 g ai/ha, scale 0 to 100): 0
Nutsedge, Yellow plant response rating ([2]; 62 g ai/ha): 10
Nutsedge, Yellow plant response rating ([2]; 125 g ai/ha): 10
Plant response rating, Ryegrass, Italian ([3]; 16 g ai/ha, scale of 0 to 100): 5
Plant response rating, Ryegrass, Italian ([3]; 31 g ai/ha, scale 0 to 100): 10
Ryegrass, Italian plant response rating ([3]; 62 g ai/ha): 15
Ryegrass, Italian plant response rating ([3]; 125 g ai/ha): 20
Plant response rating, Corn (corn (Zea mays); 16 g ai/ha, scale of 0 to 100): 15
Plant response rating, Corn (corn (Zea mays); 31 g ai/ha, scale 0 to 100): 15
Corn plant response rating (corn (Zea mays); 62 g ai/ha): 20
Corn plant response rating (corn (Zea mays); 125 g ai/ha): 25
Plant response rating, Ragweed ([4]; 16 g ai/ha, scale of 0 to 100): 10
Plant response rating, Ragweed ([4]; 31 g ai/ha, scale 0 to 100): 15
Ragweed plant response rating ([4]; 62 g ai/ha): 25
Ragweed plant response rating ([4]; 125 g ai/ha): 15
Plant response rating, Kochia (kochia (Kochia scoparia) [5]; 16 g ai/ha, scale of 0 to 100): 85
Plant response rating, Kochia (kochia (Kochia scoparia) [5]; 31 g ai/ha, scale 0 to 100): 90
Kochia plant response rating (kochia (Kochia scoparia) [5]; 62 g ai/ha): 90
Kochia plant response rating (kochia (Kochia scoparia) [5]; 125 g ai/ha): 90
Plant response rating, Waterhemp ([6]; 16 g ai/ha, scale of 0 to 100): 35
Plant response rating, Waterhemp ([6]; 31 g ai/ha, scale 0 to 100): 60
Waterhemp plant response rating [6]: 75
Plant response rating, Waterhemp ([6]; rate not given, scale 0 to 100): 75
Plant response rating, Lambsquarters ([7]; 16 g ai/ha, scale of 0 to 100): 40
Plant response rating, Lambsquarters ([7]; 31 g ai/ha, scale 0 to 100): 75
Lambsquarters plant response rating ([7]; 62 g ai/ha): 70
Lambsquarters plant response rating ([7]; 125 g ai/ha): 85
Plant response rating, Galium ([8]; 16 g ai/ha, scale of 0 to 100): 50
Plant response rating, Galium ([8]; 31 g ai/ha, scale 0 to 100): 70
Galium plant response rating ([8]; 62 g ai/ha): 85
Galium plant response rating ([8]; 125 g ai/ha): 90
Plant response rating, Soybean (soybean (Glycine max); 16 g ai/ha, scale of 0 to 100): 30
Plant response rating, Soybean (soybean (Glycine max); 31 g ai/ha, scale 0 to 100): 30
Soybean plant response rating (soybean (Glycine max); 62 g ai/ha): 50
Soybean plant response rating (soybean (Glycine max); 125 g ai/ha): 65
Plant response rating, Oat, Wild ([9]; 16 g ai/ha, scale of 0 to 100): 20
Plant response rating, Oat, Wild ([9]; 31 g ai/ha, scale 0 to 100): 30
Oat, Wild plant response rating ([9]; 62 g ai/ha): 30
Oat, Wild plant response rating ([9]; 125 g ai/ha): 35
Plant response rating, Crabgrass, Large ([10]; 16 g ai/ha, scale of 0 to 100): 10
Plant response rating, Crabgrass, Large ([10]; 31 g ai/ha, scale 0 to 100): 25
Crabgrass, Large plant response rating ([10]; 62 g ai/ha): 20
Crabgrass, Large plant response rating ([10]; 125 g ai/ha): 25
Plant response rating, Pigweed [11, 17]: 100
Plant response rating, Pigweed [11, 18]: 100
Plant response rating, Foxtail, Giant [12, 17]: 100
Plant response rating, Foxtail, Giant [12, 18]: 100
Plant response rating, Ragweed [13, 17]: 0
Plant response rating, Ragweed [13, 18]: 10
Plant response rating, Kochia (kochia (Kochia scoparia) [14]; [17]): 90
Plant response rating, Kochia (kochia (Kochia scoparia) [14]; [18]): 100
Plant response rating, Barnyardgrass [15, 17]: 80
Plant response rating, Barnyardgrass [15, 18]: 100
Plant response rating, Ryegrass, Italian [16, 17]: 20
Plant response rating, Ryegrass, Italian [16, 18]: 70
